Laboratory results from patent US8658646B2, “Pyrrolopyrazine kinase inhibitors” (Hoffmann-LaRoche Inc., priority 2011, dated 2014).

Legend:
[1] = target: T1, JAK3: Recombinant human kinase domain (Homo sapiens, UniProt P52333); assay: Determination of IC50 of Janus Kinase (JAK) inhibition, radioactive end-point 33P-ATP assay, JAK3; type: biochemical; conditions: ATP 1.5 uM, peptide 50 uM, 20 minutes, read-out: JAK3-INHIB-DR/v1~NO ADDITIVE~Enzyme_Conc = 100
T1 construct: JAK3: Recombinant human kinase domain from Millipore (Cat #14-629) or prepared; purchased Millipore 14-629
Experimental: Determination of IC50 of Janus Kinase (JAK) Inhibition:
Assay conditions used are described below: • Assay Buffer: JAK Kinase Buffer: 50 mM Hepes [pH 7.2], 10 mM MgCl2, 1 mM DTT, 1 mg/ml BSA. The assay was carried out in this buffer. • Assay Format The kinase activity of all three JAK kinases was measured using a radioactive, end-point assay and with trace amounts of ^33P-ATP. The assays were carried out in 96-well polypropylene plates. Experimental Method:
All concentrations were final in the reaction mixture and all incubations were carried at room temperature. […] Final concentration of DMSO in the reaction was 10%. • 2) Compounds were preincubated with enzyme (0.5 nM JAK3 (commercially available), 0.2 nM JAK3 (prepared), 1 nM JAK2, 5 nM JAK1) for 10 minutes. • 3) Reactions were initiated by the addition of a cocktail of the two substrates (ATP and peptide premixed in the JAK Kinase Buffer). […] JAK1 assay was carried out at an ATP concentration of 10 uM and a peptide concentration of 50 uM. • 4) The duration of the assay for JAK2 and JAK3 is 20 minutes. JAK1 assay was carried out for 40 minutes. With all three enzymes, reactions were terminated by the addition of 0.5M EDTA to a final concentration of 100 mM. • 5) 25 ul of terminated reactions were transferred to 150 ul of a 7.5% (v/v) slurry of streptavidin-coated sepharose beads in MgCl2- and CaCl2-free 1× Phosphate Buffered Saline containing 50 mM of EDTA in 96-well, 1.2 um MultiScreen-BV filter plates. • 6) After a 30-minute incubation, the beads were washed under vacuum with the following buffers: • a. 3 to 4 washes with 200 ul of 2M NaCl. • b. 3 to 4 washes with 200 ul of 2M NaCl plus 1% (v/v) phosphoric acid. • c. 1 wash with water. • 7) Washed plates were dried in a 60° C. oven for between 1 to 2 hours. • 8) 70 ul of Microscint 20 scintillation fluid was added to each well of filter plates and after at least 30 minutes of incubation, radioactive counts were measured in a Perkinelmer microplate scintillation counter.

[2] = target: T2, recombinant human SYK360-635 (Homo sapiens, UniProt P43405); assay: Determination of IC50 of Spleen Tyrosine Kinase (SYK) inhibition, 33P ATP filtration assay; type: biochemical; conditions: SYK aa 360-635 0.5 nM; ATP 20 μM, peptide 5 μM, 0.1% BSA; read-out: SYK_ENZYME_FILTRATION/v1, BSA
T2 construct: made in house

T1 sequence (P52333 822-1111 limits assumed): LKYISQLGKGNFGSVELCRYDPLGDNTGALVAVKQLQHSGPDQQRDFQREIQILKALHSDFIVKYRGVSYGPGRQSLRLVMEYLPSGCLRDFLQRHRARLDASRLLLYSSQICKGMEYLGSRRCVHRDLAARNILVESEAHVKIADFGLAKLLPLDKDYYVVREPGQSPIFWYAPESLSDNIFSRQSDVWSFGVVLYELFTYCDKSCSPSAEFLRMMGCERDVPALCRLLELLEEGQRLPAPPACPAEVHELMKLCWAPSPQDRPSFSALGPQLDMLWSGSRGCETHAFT

| Structure (SMILES) | IC50 [1] | IC50 [2] |
| --- | --- | --- |
| C[C@@H](NC(=O)c1c[nH]c2ncc(-c3nn(C)c4cc(F)ccc34)nc12)C(C)(F)F [Example I-56, 2-(6-Fluoro-1-methyl-1H-indazol-3-yl)-5H-pyrrolo[2,3-b]pyrazine-7-carboxylic acid ((R)-2,2-difluoro-1-methyl-propyl)-amide] | 11.7 nM | 7.23 nM |
| CC(NC(=O)c1c[nH]c2ncc(-c3nn(C)c4cc(Cl)ccc34)nc12)c1ncco1 (stereo not drawn) [Example I-48, 2-(6-Chloro-1-methyl-1H-indazol-3-yl)-5H-pyrrolo[2,3-b]pyrazine-7-carboxylic acid (1-oxazol-2-yl-ethyl)-amide] | 4.91 nM | 22.1 nM |
| Cn1nc(-c2cnc3[nH]cc(C(=O)NC4(CO)CCOCC4)c3n2)c2cc(OC(F)F)ccc21 [Example I-286, 2-(5-Difluoromethoxy-1-methyl-1H-indazol-3-yl)-5H-pyrrolo[2,3-b]pyrazine-7-carboxylic acid (4-hydroxymethyl-tetrahydro-pyran-4-yl)-amide] | 748 nM | 83.7 nM |
| Cn1nc(-c2cnc3[nH]cc(C(=O)NC4CCC(NS(C)(=O)=O)C4)c3n2)c2ccc(Cl)cc21 (stereo not drawn) [Example I-38, 2-(6-Chloro-1-methyl-1H-indazol-3-yl)-5H-pyrrolo[2,3-b]pyrazine-7-carboxylic acid (3-methanesulfonylamino-cyclopentyl)-amide] | 9.01 nM | 15.9 nM |
| Cc1cc(Cn2nc(-c3cnc4[nH]cc(C(=O)NC(C)C)c4n3)c3ccc(Cl)cc32)no1 [Example I-312, 2-[6-Chloro-1-(5-methyl-isoxazol-3-ylmethyl)-1H-indazol-3-yl]-5H-pyrrolo[2,3-b]pyrazine-7-carboxylic acid isopropylamide] | 8.25 nM | 73.6 nM |
| Cn1nc(-c2cnc3[nH]cc(C(=O)N[C@@H]4CCCN(CC(F)(F)F)C4)c3n2)c2ccc(Cl)cc21 [Example I-168, 2-(6-Chloro-1-methyl-1H-indazol-3-yl)-5H-pyrrolo[2,3-b]pyrazine-7-carboxylic acid [(R)-1-(2,2,2-trifluoro-ethyl)-piperidin-3-yl]-amide] | 118 nM | 3710 nM |
| CC(C)NC(=O)c1c[nH]c2ncc(-c3nn(C)c4ccc(OC(F)F)cc34)nc12 [Example I-283, 2-(5-Difluoromethoxy-1-methyl-1H-indazol-3-yl)-5H-pyrrolo[2,3-b]pyrazine-7-carboxylic acid isopropylamide] | 14.3 nM | 4.5 nM |
| Cn1nc(-c2cnc3[nH]cc(C(=O)NC(CO)C4CCCO4)c3n2)c2ccc(F)cc21 (stereo not drawn) [Example I-190, 2-(6-Fluoro-1-methyl-1H-indazol-3-yl)-5H-pyrrolo[2,3-b]pyrazine-7-carboxylic acid [2-hydroxy-1-(tetrahydro-furan-2-yl)-ethyl]-amide] | 141 nM | 127 nM |
| COC[C@H](C)NC(=O)c1c[nH]c2ncc(-c3nn(CCN(C)C)c4cc(Cl)ccc34)nc12 [Example I-234, 2-[6-Chloro-1-(2-dimethylamino-ethyl)-1H-indazol-3-yl]-5H-pyrrolo[2,3-b]pyrazine-7-carboxylic acid ((S)-2-methoxy-1-methyl-ethyl)-amide] | 2.88 nM | 95.1 nM |
| Cn1nc(-c2cnc3[nH]cc(C(=O)NC4CCOCC4)c3n2)c2ccc(Cl)cc21 [Example I-112, 2-(6-Chloro-1-methyl-1H-indazol-3-yl)-5H-pyrrolo[2,3-b]pyrazine-7-carboxylic acid (tetrahydro-pyran-4-yl)-amide] | 14.6 nM | 33.3 nM |
| CC[C@H](CO)NC(=O)c1c[nH]c2ncc(-c3nn(C)c4cc(Cl)ccc34)nc12 [Example I-161, 2-(6-Chloro-1-methyl-1H-indazol-3-yl)-5H-pyrrolo[2,3-b]pyrazine-7-carboxylic acid ((R)-1-hydroxymethyl-propyl)-amide] | 16.3 nM | 17.3 nM |
| Cn1nc(-c2cnc3[nH]cc(C(=O)N[C@@H]4CCC[C@@H](O)C4)c3n2)c2ccc(Cl)cc21 (relative stereo) [Example I-148, 2-(6-Chloro-1-methyl-1H-indazol-3-yl)-5H-pyrrolo[2,3-b]pyrazine-7-carboxylic acid (trans-3-hydroxy-cyclohexyl)-amide] | 55.5 nM | 19.3 nM |
| COC[C@H](C)NC(=O)c1c[nH]c2ncc(-n3cnc4ccc(Cl)cc43)nc12 [Example I-224, 2-(6-Chloro-bcnzoimidazol-1-yl)-5H-pyrrolo[2,3-b]pyrazine-7-carboxylic acid ((S)-2-methoxy-1-methyl-ethyl)-amide] | 346 nM | 357 nM |
| CC(NC(=O)c1c[nH]c2ncc(-c3nn(CCN4CCOCC4)c4cc(F)ccc34)nc12)c1ccncc1 (stereo not drawn) [Example I-248, 2-[6-Fluoro-1-(2-morpholin-4-yl-ethyl)-1H-indazol-3-yl]-5H-pyrrolo[2,3-b]pyrazine-7-carboxylic acid (1-pyridin-4-yl-ethyl)-amide] | 53.5 nM | 514 nM |
| Cn1nc(-c2cnc3[nH]cc(C(=O)N[C@H]4CC[C@@H](CC#N)C4)c3n2)c2ccc(F)cc21 (relative stereo) [Example I-57, 2-(6-Fluoro-1-methyl-1H-indazol-3-yl)-5H-pyrrolo[2,3-b]pyrazine-7-carboxylic acid (cis-3-cyanomethyl-cyclopentyl)-amide] | 10.6 nM | 44.4 nM |
| COC[C@@H](NC(=O)c1c[nH]c2ncc(-c3nn(C)c4cc(F)ccc34)nc12)[C@H](C)O [Example I-188, 2-(6-Fluoro-1-methyl-1H-indazol-3-yl)-5H-pyrrolo[2,3-b]pyrazine-7-carboxylic acid ((1R,2S)-2-hydroxy-1-methoxymethyl-propyl)-amide] | 31.7 nM | 168 nM |
| Cn1nc(-c2cnc3[nH]cc(C(=O)N[C@H]4CC[C@@H](O)CC4)c3n2)c2ccc(Cl)cc21 [Example I-158, 2-(6-Chloro-1-methyl-1H-indazol-3-yl)-5H-pyrrolo[2,3-b]pyrazine-7-carboxylic acid (cis-4-hydroxy-cyclohexyl)-amide] | 2.02 nM | 9.7 nM |

The next lines start with the values.

| IC50 [1] | IC50 [2] | Structure (SMILES) |
| --- | --- | --- |
| 29.3 nM | 83.5 nM | CC(CN1CCC(C#N)C1)NC(=O)c1c[nH]c2ncc(-c3nn(C)c4cc(Cl)ccc34)nc12 (stereo not drawn) [Example I-125, 2-(6-Chloro-1-methyl-1H-indazol-3-yl)-5H-pyrrolo[2,3-b]pyrazine-7-carboxylic acid [2-(3-cyano-pyrrolidin-1-yl)-1-methyl-ethyl]-amide] |
| 10.2 nM | 994 nM | COC[C@H](C)NC(=O)c1c[nH]c2ncc(-c3ncn4cc(F)cc(F)c34)nc12 [Example I-40, 2-(6,8-Difluoro-imidazo[1,5-a]pyridin-1-yl)-5H-pyrrolo[2,3-b]pyradine-7-carboxylic acid ((S)-2-methoxy-1-methyl-ethyl)-amide] |
| 4.95 nM | 47.3 nM | CC(NC(=O)c1c[nH]c2ncc(-c3nn(C)c4cc(Cl)ccc34)nc12)C1CCCO1 (stereo not drawn) [Example I-154, 2-(6-Chloro-1-methyl-1H-indazol-3-yl)-5H-pyrrolo[2,3-b]pyrazine-7-carboxylic acid [1-(tetrahydro-furan-2-yl)-ethyl]-amide] |
| 1.47 nM | 70.5 nM | COC[C@H](C)NC(=O)c1c[nH]c2ncc(-c3nn(CCN4CC[C@H](F)C4)c4cc(F)ccc34)nc12 [Example I-243, 2-{6-Fluoro-1-[2-((S)-3-fluoro-pyrrolidin-1-yl)-ethyl]-1H-indazol-3-yl}-5H-pyrrolo[2,3-b]pyrazine-7-carboxylic acid ((S)-2-methoxy-1-methyl-ethyl)-amide] |
| 4.72 nM | 23.4 nM | CC(C)NC(=O)c1c[nH]c2ncc(-c3nn(CCCN4CCOCC4)c4cc(Cl)cc(F)c34)nc12 [Example I-132, 2-[6-Chloro-4-fluoro-1-(3-morpholin-4-yl-propyl)-1H-indazol-3-yl]-5H-pyrrolo[2,3-b]pyrazine-7-carboxylic acid isopropylamide] |
| 18.5 nM | 248 nM | COC[C@@H](NC(=O)c1c[nH]c2ncc(-c3nn(C)c4cc(F)ccc34)nc12)[C@H](C)OC [Example I-189, 2-(6-Fluoro-1-methyl-1H-indazol-3-yl)-5H-pyrrolo[2,3-b]pyrazine-7-carboxylic acid ((1R,2S)-2-methoxy-1-methoxymethyl-propyl)-amide] |
| 14.2 nM | 30.2 nM | C[C@@H](NC(=O)c1c[nH]c2ncc(-c3nn(C)c4cc(F)ccc34)nc12)c1ccccn1 [Example I-78, 2-(6-Fluoro-1-methyl-1H-indazol-3-yl)-5H-pyrrolo[2,3-b]pyrazine-7-carboxylic acid ((R)-1-pyridin-2-yl-ethyl)-amide] |
| 0.725 nM | 22.7 nM | COC[C@H](C)NC(=O)c1c[nH]c2ncc(-c3nn(Cc4ccc(N5CCOCC5)nc4)c4cc(F)ccc34)nc12 [Example I-237, 2-[6-Fluoro-1-(6-morpholin-4-yl-pyridin-3-ylmethyl)-1H-indazol-3-yl]-5H-pyrrolo[2,3-b]pyrazine-7-carboxylic acid ((S)-2-methoxy-1-methyl-ethyl)-amide] |
| 5.47 nM | 85.1 nM | Cn1nc(-c2cnc3[nH]cc(C(=O)N[C@@H]4CCC[C@@H](C#N)C4)c3n2)c2ccc(Cl)cc21 (relative stereo) [Example I-156, 2-(6-Chloro-1-methyl-1H-indazol-3-yl)-5H-pyrrolo[2,3-b]pyrazine-7-carboxylic acid (trans-3-cyano-cyclohexyl)-amide] |
| 5.81 nM | 243 nM | COC[C@H](C)NC(=O)c1c[nH]c2ncc(-c3nc(Cl)n4cc(F)ccc34)nc12 [Example I-39, 2-(3-Chloro-6-fluoro-imidazo[1,5-a]pyridin-1-yl)-5H-pyrrolo[2,3-b]pyrazine-7-carboxylic acid ((S)-2-methoxy-1-methyl-ethyl)-amide] |
